Source: patent publication US8188064B2, “Vitamin D analogs for obesity prevention and treatment” (Wisconsin Alumni Research Foundation, priority 2003, dated 2012)
“Also recorded” adds a separate entry of the source.

Key:
[1] = target: T1, full-length recombinant rat vitamin D receptor (Rattus norvegicus, UniProt P13053); assay: Vitamin D receptor binding (competition with 3H-1,25(OH)2D3); conditions: result in words, competition for tritiated hormone binding
T1 construct: Full-length recombinant rat receptor was expressed in E. coli; histidine tag (C); made in house; host or cells: E. coli BL21(DE3) Codon Plus RIL
T1 sequence (P13053 1-423): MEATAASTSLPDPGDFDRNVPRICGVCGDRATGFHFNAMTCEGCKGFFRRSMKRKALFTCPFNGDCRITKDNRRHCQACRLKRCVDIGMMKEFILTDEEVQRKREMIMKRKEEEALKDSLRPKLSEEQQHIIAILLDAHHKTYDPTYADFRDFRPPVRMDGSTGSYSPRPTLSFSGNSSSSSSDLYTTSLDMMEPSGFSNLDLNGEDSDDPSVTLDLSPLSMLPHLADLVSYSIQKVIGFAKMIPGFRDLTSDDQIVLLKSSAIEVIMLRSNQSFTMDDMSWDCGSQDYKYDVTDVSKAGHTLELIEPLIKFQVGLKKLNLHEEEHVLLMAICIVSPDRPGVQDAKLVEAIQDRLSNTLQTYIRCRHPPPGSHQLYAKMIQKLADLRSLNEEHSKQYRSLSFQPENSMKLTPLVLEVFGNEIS
Experimental: Full-length recombinant rat receptor was expressed in E. coli BL21(DE3) Codon Plus RIL cells and purified to homogeneity using two different column chromatography systems. The first system was a nickel affinity resin that utilizes the C-terminal histidine tag on this protein. The protein that was eluted from this resin was further purified using ion exchange chromatography (S-Sepharose Fast Flow). Aliquots of the purified protein were quick frozen in liquid nitrogen and stored at −80° C. until use. For use in binding assays, the protein was diluted in TEDK50 (50 mM Tris, 1.5 mM EDTA, pH 7.4, 5 mM DTT, 150 mM KCl) with 0.1% Chaps detergent. The receptor protein and ligand concentration was optimized such that no more than 20% of the added radiolabeled ligand was bound to the receptor.
Unlabeled ligands were dissolved in ethanol and the concentrations determined using UV spectrophotometry (1,25(OH)2D3: molar extinction coefficient=18,200 and λmax=265 nm; Analogs: molar extinction coefficient=42,000 and λmax=252 nm). Radiolabeled ligand (^3H-1,25(OH)2D3, ˜159 Ci/mmole) was added in ethanol at a final concentration of 1 nM.
Radiolabeled and unlabeled ligands were added to 100 mcl of the diluted protein at a final ethanol concentration of ≦10%, mixed and incubated overnight on ice to reach binding equilibrium. The following day, 100 mcl of hydroxylapatite slurry (50%) was added to each tube and mixed at 10-minute intervals for 30 minutes. The hydroxylapaptite was collected by centrifugation and then washed three times with Tris-EDTA buffer (50 mM Tris, 1.5 mM EDTA, pH 7.4) containing 0.5% Titron X-100. After the final wash, the pellets were transferred to scintillation vials containing 4 ml of Biosafe II scintillation cocktail, mixed and placed in a scintillation counter. Total binding was determined from the tubes containing only radiolabeled ligand.

[2] = system: Human promyelocytic leukemia (HL60) cells; assay: HL-60 differentiation (nitro blue tetrazolium reduction); assay type: cell-based; conditions: for cells induced to differentiate in the NBT assay: concentration 1×10^−7 M; for differentiation of HL-60 cells, compared to 1α,25(OH)2D3: result in words
Experimental: The study drugs were dissolved in ethanol and the concentrations determined using UV spectrophotometry. Serial dilutions were prepared so that a range of drug concentrations could be tested without changing the final concentration of ethanol (≦0.2%) present in the cell cultures.
Human promyelocytic leukemia (HL60) cells were grown in RPMI-1640 medium containing 10% fetal bovine serum. The cells were incubated at 37° C. in the presence of 5% CO2.
HL60 cells were plated at 1.2×10^5 cells/ml. Eighteen hours after plating, cells in duplicate were treated with drug. Four days later, the cells were harvested and a nitro blue tetrazolium reduction assay was performed (Collins et al., 1979; J. Exp. Med. 149:969-974). The percentage of differentiated cells was determined by counting a total of 200 cells and recording the number that contained intracellular black-blue formazan deposits. Verification of differentiation to monocytic cells was determined by measuring phagocytic activity (data not shown).

[3] = system: 24-hydroxylase (24Ohase) gene promoter in ROS 17/2.8 (bone) cells; assay: In vitro transcription assay (luciferase reporter); assay type: cell-based; conditions: result in words
Experimental: Transcription activity was measured in ROS 17/2.8 (bone) cells that were stably transfected with a 24-hydroxylase (24Ohase) gene promoter upstream of a luciferase reporter gene (Arbour et al., 1998). Cells were given a range of doses. Sixteen hours after dosing the cells were harvested and luciferase activities were measured using a luminometer. RLU=relative luciferase units.

[4] = Intestinal calcium transport (everted gut sac); assay type: in vivo; conditions: result in words; vitamin D deficient rat model, compared to 1α,25(OH)2D3
Experimental: (§1) Male, weanling Sprague-Dawley rats were placed on Diet 11 (0.47% Ca) diet+AEK for one week followed by Diet 11 (0.02% Ca)+AEK for 3 weeks. The rats were then switched to a diet containing 0.47% Ca for one week followed by two weeks on a diet containing 0.02% Ca. Dose administration began during the last week on 0.02% calcium diet. Four consecutive ip doses were given approximately 24 hours apart. Twenty-four hours after the last dose, blood was collected from the severed neck and the concentration of serum calcium determined as a measure of bone calcium mobilization. The first 10 cm of the intestine was also collected for intestinal calcium transport analysis using the everted gut sac method.

[5] = Bone calcium mobilization (serum calcium on low calcium diet); assay type: in vivo, rat; conditions: result in words; vitamin D deficient rat model, compared to 1α,25(OH)2D3
Experimental: as §1

[6] = system: 3T3-L1 cells; assay: Inhibition of 3T3-L1 differentiation into mature adipocytes (Oil-Red-O staining); assay type: cell-based, murine; conditions: for inhibition of differentiation of 3T3-L1 cells into mature adipocytes (Oil-Red-O staining): result in words, MDI-treated cells, staining at day 10; for inhibition of differentiation of MDI-treated 3T3-L1 cells (oil-red-O staining): tested at 1×10^−8.5 M
Experimental: Various 19-nor vitamin D analogs were or are tested and found to inhibit the differentiation of preadipocytes into mature adipocytes, to reduce body fat, to inhibit an increase in PPARγ, C/EBPα, and/or SCD-1 gene transcription and to be useful in treating and preventing obesity both in vivo and in vitro. The undifferentiated preadipocyte 3T3-L1 subline, a derivative of the original mouse fibroblast cell line, is one of the most accepted models for investigating the adipogenesis process and was used for the analysis. Two days after reaching confluence, 3T3-L1 cells can be induced to differentiate into adipocytes (see Mackall, J. C. et al. J. Biol. Chem., 251(20), 6462-6464 (1976)) with the addition of a cAMP phosphodiesterase inhibitor, dexamethasone (a glucocortoid), and insulin. […] The induction of PPARγ and C/EBPα is required for adipocyte differentiation. […] SCD-1 is an enzyme found in adipocytes that converts saturated fatty acids (C16 and C18) to their monounsaturated forms (C16:1 and C18:1). The deposition of triglyceride can also be detected as early as 3 days, and by the 7th to 14th days post-confluence, greater than 80% of the cells in the monolayer stain positively with Oil-red-O.

[7] = system: SCD-1 mRNA; assay: Inhibition of SCD-1 mRNA induction in 3T3-L1 cells (RT-PCR); assay type: cell-based, murine; conditions: for inhibition of SCD-1 mRNA induction: result in words, MDI-treated 3T3-L1 cells; for inhibition of SCD1 mRNA induction: tested at 1×10^−8.5 M
Text: Chomczynski, P. et al., Anal. […] NO: 4)).

[8] = Hypercalcemia / serum calcium analysis; assay type: in vivo, rat; conditions: normal vitamin D sufficient rats, very high oral doses

binding to the vitamin D receptor, compared to 1α,25(OH)2D3 ([1]; listed as AGS)	binding to the vitamin D receptor, compared to 1α,25(OH)2D3 ([1]; listed as AGR)	SMILES	binding to the vitamin D receptor, compared to 1α,25(OH)2D3 [1]	cells induced to differentiate in the NBT assay [2]	differentiation of HL-60 cells, compared to 1α,25(OH)2D3 [2]	transcriptional activity in bone cells, compared to 1α,25(OH)2D3 [3]	intestinal calcium transport activity [4]	bone calcium mobilization activity [5]	inhibition of differentiation of 3T3-L1 cells into mature adipocytes (Oil-Red-O staining) [6]	inhibition of SCD-1 mRNA induction [7]	increase in serum calcium [8]	inhibition of differentiation of 3T3-L1 cells into mature adipocytes (Oil-Red-O staining) ([6]; listed as 2MP)	inhibition of differentiation of MDI-treated 3T3-L1 cells (oil-red-O staining) [6]	inhibition of SCD-1 mRNA induction ([7]; listed as 2MP)	inhibition of SCD1 mRNA induction [7]	inhibition of differentiation of 3T3-L1 cells into mature adipocytes (Oil-Red-O staining) ([6]; listed as LAGS)	fold more active than the native hormone 1α,25-(OH)2D3 in inhibition of adipocyte differentiation ([6]; Oil-Red-O staining)
–	–	COCOCCC=C1C(O)CC(=CC=C2CCCC3(C)C2CCC3C(C)CCCC(C)(C)O)CC1O (centres unmarked) [F-Wit]	very active; also recorded: less than five times less potent	same degree of differentiation	as potent as	significant transcriptional activity	relatively high intestinal calcium transport activity; also recorded: active	significant ability to mobilize calcium from bone; also recorded: active	also active	active	–	–	–	–	–	–	–
–	–	C=C1[C@H](O)CC(=C/C=C2\CCC[C@]3(C)[C@@H](C(C)C)CC[C@@H]23)C[C@H]1O [2-MP]	as or nearly effective as calcitriol	–	–	–	little, if any, activity	little, if any, activity	nearly as potent as the native hormone	nearly as potent as the native hormone	without producing an increase in serum calcium	still active	active	still active	active	–	–
less than five times less potent	–	CC(CCCC(C)(C)O)C1CCC2C(=CC=C3CC(O)C(=CCCO)C(O)C3)CCCC21C (centres unmarked) [1AGS]	very active	same degree of differentiation	as potent as	significant transcriptional activity	relatively high intestinal calcium transport activity; also recorded: active	significant ability to mobilize calcium from bone; also recorded: active	nearly equipotent; also recorded: highest activity; also recorded: so much greater; also recorded: active	nearly equipotent; also recorded: active	–	–	–	–	–	slightly more active	–
–	–	C=C1[C@H](O)CC(=C/C=C2\CCC[C@@H]3[C@@H]([C@@H](C)CCCC(C)(C)O)CC[C@@H]23)C[C@H]1O [VD-03]	very active; also recorded: as well as the native hormone	–	high potency	higher transcriptional activity	about as active as; also recorded: approximately the same activity	relatively low ability	active	active	–	–	–	–	–	–	approximately 10 fold
–	–	C=C1[C@H](O)CC(=C/C=C2\CCC[C@]3(C)C(=C(C)C)CC[C@@H]23)C[C@H]1O [VIT-I]	bound equally well; also recorded: as well as the native hormone	–	almost as potent	about the same transcriptional activity	very little activity; also recorded: less activity	very little bone calcium mobilization activity	has activity	–	–	–	active	–	active	–	–
–	less than five times less potent	CC(CCCC(C)(C)O)C1CCC2C(=CC=C3CC(O)C(=CCCO)C(O)C3)CCCC21C (centres unmarked) [1AGR]	very active	same degree of differentiation	as potent as	significant transcriptional activity	relatively high intestinal calcium transport activity; also recorded: active	significant ability to mobilize calcium from bone; also recorded: active	nearly equipotent; also recorded: so much greater; also recorded: active	nearly equipotent; also recorded: active	–	–	–	–	–	–	–
